In ChEMBL document CHEMBL2074140, “Identification and characterization of a prostaglandin transporter” (Science, 1995):

Each molecule was assayed against Solute carrier organic anion transporter family member 2A1 (Rattus norvegicus, UniProt Q00910) (assay: TP_TRANSPORTER: inhibition of PGF2alpha uptake in PGT-expressing HeLa cells).
Assay type: functional, cell-based

SMILES	Ki [µM]
Cc1c(C2(c3cc(Br)c(O)c(Br)c3C)OS(=O)(=O)c3ccccc32)cc(Br)c(O)c1Br [BROMCRESOL GREEN]	3.6
NS(=O)(=O)c1cc(C(=O)O)c(NCc2ccco2)cc1Cl [FUROSEMIDE]	47
O=C1OC(c2ccc(O)c(S(=O)(=O)O)c2)(c2ccc(O)c(S(=O)(=O)O)c2)c2c(Br)c(Br)c(Br)c(Br)c21 [SULFOBROMOPHTHALEIN SODIUM]	5.8
CC1(C)C(/C=C/C=C/C=C/C=C2\N(CCCCS(=O)(=O)O)c3ccc4ccccc4c3C2(C)C)=[N+](CCCCS(=O)(=O)[O-])c2ccc3ccccc3c21 [INDOCYANINE GREEN]	35
